Source: ChEMBL document CHEMBL1201862, “PubChem BioAssay data set” (2004)
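Growth conditions: 96-well plates. Treatment: test compound, 48 hours, 5 concentrations. Analysis: linear interpolation between bracketing concentrations; unreached endpoints set to highest concentration. GI50 = concentration required for 50% inhibition of growth.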 Calls of active or inactive are those of the source. Cut-off read from the data, not from the text of the source: active = GI50 up to about 1.1 µM and inactive = higher.

Key:
Assay in all cases: DTP human tumour cell line panel, 48 h
U-251 = tested on: U-251
NCI-H460 = tested on: NCI-H460
BT-549 = tested on: BT-549
HT-29 = tested on: HT-29
SW-620 = tested on: SW-620
HCC 2998 = tested on: HCC 2998
SN12C = tested on: SN12C
EKVX = tested on: EKVX
SNB-75 = tested on: SNB-75
MCF7 = tested on: MCF7
CCRF-CEM = tested on: CCRF-CEM
HCT-15 = tested on: HCT-15
SF-295 = tested on: SF-295
NCI-H23 = tested on: NCI-H23
NCI-H522 = tested on: NCI-H522
A498 = tested on: A498
SK-OV-3 = tested on: SK-OV-3
OVCAR-3 = tested on: OVCAR-3
MDA-N = tested on: MDA-N
Hs-578T = tested on: Hs-578T

Compound	GI50 (U-251)	GI50 (NCI-H460)	GI50 (BT-549)	GI50 (HT-29)	GI50 (SW-620)	GI50 (HCC 2998)	GI50 (SN12C)	GI50 (EKVX)	GI50 (SNB-75)	GI50 (MCF7)	GI50 (CCRF-CEM)	GI50 (HCT-15)	GI50 (SF-295)	GI50 (NCI-H23)	GI50 (NCI-H522)	GI50 (A498)	GI50 (SK-OV-3)	GI50 (OVCAR-3)	GI50 (MDA-N)	GI50 (Hs-578T)
Cn1c(=O)cc(N2CCCC2)[nH]c1=O	> 100 µM (inactive)	> 100 µM (inactive)	> 100 µM (inactive)	> 100 µM (inactive)	> 100 µM (inactive)	> 100 µM (inactive)	> 100 µM (inactive)	> 100 µM (inactive)	> 100 µM (inactive)	> 100 µM (inactive)	> 100 µM (inactive)	> 100 µM	> 100 µM (inactive)	> 100 µM (inactive)	> 100 µM (inactive)					
COc1cccc2c1OC1c3ccccc3OCC1C2 (configuration not stated)	> 100 µM (inactive)		62.2 µM (inactive)	> 100 µM (inactive)	> 100 µM (inactive)	> 100 µM (inactive)	> 100 µM (inactive)	44.2 µM (inactive)	< 0.01 µM (active)	> 100 µM (inactive)	42.8 µM (inactive)	> 100 µM	> 100 µM (inactive)	> 100 µM (inactive)	> 10 µM (inactive)	> 100 µM (inactive)	> 100 µM (inactive)	> 100 µM (inactive)	> 100 µM (inactive)	
O=c1[nH]nc(Nc2ccc(Cl)cc2)c2nnn(-c3ccc([N+](=O)[O-])cc3)c12	14.2 µM (inactive)	30.6 µM (inactive)	19.2 µM (inactive)	25.4 µM (inactive)	30.9 µM (inactive)	15.2 µM (inactive)	26.9 µM (inactive)	30.6 µM (inactive)	39.8 µM (inactive)	16.6 µM (inactive)	7.98 µM (inactive)	14.4 µM	25.3 µM (inactive)	8.59 µM (inactive)	4.47 µM (inactive)					
CCOC(=O)c1ccc(-n2nnc(C(N)=O)c2O)cc1	> 100 µM (inactive)	> 100 µM (inactive)	> 100 µM (inactive)	> 100 µM (inactive)	> 100 µM (inactive)	> 100 µM (inactive)	> 100 µM (inactive)	> 100 µM (inactive)	> 100 µM (inactive)	> 100 µM (inactive)	> 100 µM (inactive)	> 100 µM	> 100 µM (inactive)	> 100 µM (inactive)	> 100 µM (inactive)		> 100 µM (inactive)	> 100 µM (inactive)	> 100 µM (inactive)	> 100 µM (inactive)
O=C(Nc1ccc(Cl)cc1)NS(=O)(=O)c1coc2cc(F)ccc2c1=O	62.2 µM (inactive)	> 100 µM (inactive)	> 100 µM (inactive)	> 100 µM (inactive)	> 100 µM (inactive)	80.4 µM (inactive)	> 100 µM (inactive)	> 100 µM (inactive)	> 100 µM (inactive)	> 100 µM (inactive)	86.3 µM (inactive)	19.9 µM	> 100 µM (inactive)	> 100 µM (inactive)	67.9 µM (inactive)		> 100 µM (inactive)	> 100 µM (inactive)	> 100 µM (inactive)	> 100 µM (inactive)
CN1CCc2c([nH]c3ccccc23)C1	> 100 µM (inactive)	> 100 µM (inactive)	> 100 µM (inactive)	> 100 µM (inactive)	> 100 µM (inactive)	> 100 µM (inactive)	> 100 µM (inactive)	> 100 µM (inactive)	19.7 µM (inactive)	> 100 µM (inactive)	> 100 µM (inactive)	> 100 µM	> 100 µM (inactive)	> 100 µM (inactive)	> 100 µM (inactive)		> 100 µM (inactive)	> 100 µM (inactive)	> 100 µM (inactive)	> 100 µM (inactive)
CCCCCCCC1(N=[N+]=[N-])C(=O)c2ccccc2N(C)C1=O (configuration not stated)	> 100 µM (inactive)	> 100 µM (inactive)	88.5 µM (inactive)	40.1 µM (inactive)	> 100 µM (inactive)	> 100 µM (inactive)	> 100 µM (inactive)	> 100 µM (inactive)	> 100 µM (inactive)	> 100 µM (inactive)	7.55 µM (inactive)	> 100 µM	> 100 µM (inactive)	48 µM (inactive)	64.9 µM (inactive)	> 100 µM (inactive)	> 100 µM (inactive)	49 µM (inactive)		> 100 µM (inactive)
Cc1cc2c(c(/C=N/c3ccccc3O)c1)OC1(C=C2)Oc2ccccc2C(=O)N1C (configuration not stated)	18.2 µM (inactive)	16.7 µM (inactive)	18.7 µM (inactive)	16.6 µM (inactive)	22.3 µM (inactive)	15.8 µM (inactive)	20.9 µM (inactive)	14 µM (inactive)	18.6 µM (inactive)		17.1 µM (inactive)	15.9 µM	24.7 µM (inactive)	17.8 µM (inactive)		18.6 µM (inactive)	24.4 µM (inactive)	12.8 µM (inactive)	28.2 µM (inactive)	11.6 µM (inactive)
